≈ marks a conversion by molar mass, not a printed value.
System: infectious agents (strains tested)
Assay: organism not typed
Assay type: cell-based

## C[C@@H](c1ncncc1F)[C@](O)(Cn1cncn1)c1ccc(F)cc1F [Voriconazole]
Absidia spp, read-out: Geometric Mean MIC
  MIC: 40.3 µg/mL (≈ 115 µM)
Absidia spp, read-out: MIC[90]
  MIC: 8 to 128 µg/mL (≈ 22.9 to 366 µM)
Apophysomyces spp, read-out: Geometric Mean MIC
  MIC: 42.2 µg/mL (≈ 121 µM)
Apophysomyces spp, read-out: MIC[90]
  MIC: 16 to 128 µg/mL (≈ 45.8 to 366 µM)
Aspergillus flavus, read-out: Geometric Mean MIC
  MIC: 0.339 µg/mL (≈ 0.97 µM)
Aspergillus flavus, read-out: MIC[90]
  MIC: 1 µg/mL (≈ 2.86 µM)
Aspergillus fumigatus, read-out: Geometric Mean MIC
  MIC: 0.282 µg/mL (≈ 0.807 µM)
Aspergillus fumigatus, read-out: MIC[90]
  MIC: 0.5 µg/mL (≈ 1.43 µM)
Aspergillus nidulans, read-out: Geometric Mean MIC
  MIC: 0.07 µg/mL (≈ 0.2 µM)
Aspergillus nidulans, read-out: MIC[90]
  MIC: 0.031 to 0.125 µg/mL (≈ 0.0887 to 0.358 µM)
Aspergillus niger, read-out: Geometric Mean MIC
  MIC: 0.48 µg/mL (≈ 1.37 µM)
Aspergillus niger, read-out: MIC[90]
  MIC: 2 µg/mL (≈ 5.73 µM)
Aspergillus sydowii, read-out: Geometric Mean MIC
  MIC: 0.397 µg/mL (≈ 1.14 µM)
Aspergillus sydowii, read-out: MIC[90]
  MIC: 0.25 to 1 µg/mL (≈ 0.716 to 2.86 µM)
Aspergillus terreus, read-out: Geometric Mean MIC
  MIC: 0.312 µg/mL (≈ 0.893 µM)
Aspergillus terreus, read-out: MIC[90]
  MIC: 0.5 µg/mL (≈ 1.43 µM)
Aspergillus ustus, read-out: Geometric Mean MIC
  MIC: 1.19 µg/mL (≈ 3.4 µM)
Aspergillus ustus, read-out: MIC[90]
  MIC: 0.25 to 2 µg/mL (≈ 0.716 to 5.73 µM)
Bipolaris spp, read-out: Geometric Mean MIC
  MIC: 1 µg/mL (≈ 2.86 µM)
Bipolaris spp, read-out: MIC[90]
  MIC: 1 µg/mL (≈ 2.86 µM)
Bjerkandera adusta, read-out: Geometric Mean MIC
  MIC: 0.216 µg/mL (≈ 0.618 µM)
Bjerkandera adusta, read-out: MIC[90]
  MIC: 0.25 µg/mL (≈ 0.716 µM)
Candida albicans, read-out: Geometric Mean MIC
  MIC: 0.021 µg/mL (≈ 0.0601 µM)
Candida albicans, read-out: MIC[90]
  MIC: 0.063 µg/mL (≈ 0.18 µM)
Candida dubliniensis, read-out: Geometric Mean MIC
  MIC: 0.028 µg/mL (≈ 0.0802 µM)
Candida dubliniensis, read-out: MIC[90]
  MIC: 0.125 µg/mL (≈ 0.358 µM)
Candida tropicalis, read-out: Geometric Mean MIC
  MIC: 0.075 µg/mL (≈ 0.215 µM)
Candida tropicalis, read-out: MIC[90]
  MIC: 0.5 µg/mL (≈ 1.43 µM)
Clavispora lusitaniae, Candida lusitaniae, read-out: Geometric Mean MIC
  MIC: 0.023 µg/mL (≈ 0.0658 µM)
Clavispora lusitaniae, Candida lusitaniae, read-out: MIC[90]
  MIC: 0.063 µg/mL (≈ 0.18 µM)
Cryptococcus neoformans, read-out: Geometric Mean MIC
  MIC: 0.054 µg/mL (≈ 0.155 µM)
Cryptococcus neoformans, read-out: MIC[90]
  MIC: 0.125 µg/mL (≈ 0.358 µM)
Curvularia spp, read-out: Geometric Mean MIC
  MIC: 0.125 µg/mL (≈ 0.358 µM)
Curvularia spp, read-out: MIC[90]
  MIC: 0.125 µg/mL (≈ 0.358 µM)
Debaryomyces hansenii, Candida famata, read-out: Geometric Mean MIC
  MIC: 0.072 µg/mL (≈ 0.206 µM)
Debaryomyces hansenii, Candida famata, read-out: MIC[90]
  MIC: 0.008 to 0.5 µg/mL (≈ 0.0229 to 1.43 µM)
Diutina rugosa, Candida rugosa, read-out: Geometric Mean MIC
  MIC: 0.072 µg/mL (≈ 0.206 µM)
Diutina rugosa, Candida rugosa, read-out: MIC[90]
  MIC: 0.5 µg/mL (≈ 1.43 µM)
Dujonia zeylanoides, Candida zeylanoides, read-out: Geometric Mean MIC
  MIC: 0.039 µg/mL (≈ 0.112 µM)
Dujonia zeylanoides, Candida zeylanoides, read-out: MIC[90]
  MIC: 0.008 to 0.125 µg/mL (≈ 0.0229 to 0.358 µM)
Epidermophyton floccosum, read-out: Geometric Mean MIC
  MIC: 0.015 µg/mL (≈ 0.0429 µM)
Epidermophyton floccosum, read-out: MIC[90]
  MIC: 0.016 µg/mL (≈ 0.0458 µM)
Exophiala dermatidis, read-out: Geometric Mean MIC
  MIC: 0.063 µg/mL (≈ 0.18 µM)
Exophiala dermatidis, read-out: MIC[90]
  MIC: 0.063 µg/mL (≈ 0.18 µM)
Exophiala dermatitidis, Wangiella dermatitidis, read-out: Geometric Mean MIC
  MIC: 1 µg/mL (≈ 2.86 µM)
Exophiala dermatitidis, Wangiella dermatitidis, read-out: MIC[90]
  MIC: 1 µg/mL (≈ 2.86 µM)
Exophiala jeanselmei, read-out: Geometric Mean MIC
  MIC: 0.794 µg/mL (≈ 2.27 µM)
Exophiala jeanselmei, read-out: MIC[90]
  MIC: 0.5 to 1 µg/mL (≈ 1.43 to 2.86 µM)
Fonsecae pedrosoi, read-out: Geometric Mean MIC
  MIC: 0.5 µg/mL (≈ 1.43 µM)
Fonsecae pedrosoi, read-out: MIC[90]
  MIC: 0.5 µg/mL (≈ 1.43 µM)
Fusarium spp, read-out: Geometric Mean MIC
  MIC: 4.42 µg/mL (≈ 12.6 µM)
Fusarium spp, read-out: MIC[90]
  MIC: 16 µg/mL (≈ 45.8 µM)
Kluyveromyces marxianus, Candida kefyr, read-out: Geometric Mean MIC
  MIC: 0.031 µg/mL (≈ 0.0887 µM)
Kluyveromyces marxianus, Candida kefyr, read-out: MIC[90]
  MIC: 0.031 µg/mL (≈ 0.0887 µM)
Lodderomyces parapsilosis, Candida parapsilosis, read-out: Geometric Mean MIC
  MIC: 0.036 µg/mL (≈ 0.103 µM)
Lodderomyces parapsilosis, Candida parapsilosis, read-out: MIC[90]
  MIC: 0.125 µg/mL (≈ 0.358 µM)
Meyerozyma guilliermondii, Candida guilliermondii, read-out: Geometric Mean MIC
  MIC: 0.112 µg/mL (≈ 0.321 µM)
Meyerozyma guilliermondii, Candida guilliermondii, read-out: MIC[90]
  MIC: 8 µg/mL (≈ 22.9 µM)
Microsporum canis, read-out: Geometric Mean MIC
  MIC: 0.018 µg/mL (≈ 0.0515 µM)
Microsporum canis, read-out: MIC[90]
  MIC: 0.031 µg/mL (≈ 0.0887 µM)
Mucor spp, read-out: Geometric Mean MIC
  MIC: 24.7 µg/mL (≈ 70.6 µM)
Mucor spp, read-out: MIC[90]
  MIC: 1 to 128 µg/mL (≈ 2.86 to 366 µM)
Nakaseomyces glabratus, Candida glabrata, read-out: Geometric Mean MIC
  MIC: 0.305 µg/mL (≈ 0.873 µM)
Nakaseomyces glabratus, Candida glabrata, read-out: MIC[90]
  MIC: 2 µg/mL (≈ 5.73 µM)
Paecilomyces spp, read-out: Geometric Mean MIC
  MIC: 0.324 µg/mL (≈ 0.928 µM)
Paecilomyces spp, read-out: MIC[90]
  MIC: 0.031 to 2 µg/mL (≈ 0.0887 to 5.73 µM)
Papiliotrema laurentii, Cryptococcus laurentii, read-out: Geometric Mean MIC
  MIC: 0.25 µg/mL (≈ 0.716 µM)
Papiliotrema laurentii, Cryptococcus laurentii, read-out: MIC[90]
  MIC: 0.25 µg/mL (≈ 0.716 µM)
Penicillium spp, read-out: Geometric Mean MIC
  MIC: 0.622 µg/mL (≈ 1.78 µM)
Penicillium spp, read-out: MIC[90]
  MIC: 2 µg/mL (≈ 5.73 µM)
Pichia kudriavzevii, Candida krusei, read-out: Geometric Mean MIC
  MIC: 0.346 µg/mL (≈ 0.991 µM)
Pichia kudriavzevii, Candida krusei, read-out: MIC[90]
  MIC: 0.5 µg/mL (≈ 1.43 µM)
Rhizomucor spp, read-out: Geometric Mean MIC
  MIC: 2 µg/mL (≈ 5.73 µM)
Rhizomucor spp, read-out: MIC[90]
  MIC: 2 µg/mL (≈ 5.73 µM)
Rhizopus spp, read-out: Geometric Mean MIC
  MIC: 8 µg/mL (≈ 22.9 µM)
Rhizopus spp, read-out: MIC[90]
  MIC: 1 to 32 µg/mL (≈ 2.86 to 91.6 µM)
Saccharomyces cerevisiae, read-out: Geometric Mean MIC
  MIC: 0.05 µg/mL (≈ 0.143 µM)
Saccharomyces cerevisiae, read-out: MIC[90]
  MIC: 0.125 µg/mL (≈ 0.358 µM)
Scedosporium apiospermum, read-out: Geometric Mean MIC
  MIC: 0.098 µg/mL (≈ 0.281 µM)
Scedosporium apiospermum, read-out: MIC[90]
  MIC: 0.5 µg/mL (≈ 1.43 µM)
Scedosporium boydii, Pseudallescheria boydii, read-out: Geometric Mean MIC
  MIC: 0.25 µg/mL (≈ 0.716 µM)
Scedosporium boydii, Pseudallescheria boydii, read-out: MIC[90]
  MIC: 0.125 to 0.5 µg/mL (≈ 0.358 to 1.43 µM)
Trichophyton mentagrophytes, read-out: Geometric Mean MIC
  MIC: 0.038 µg/mL (≈ 0.109 µM)
Trichophyton mentagrophytes, read-out: MIC[90]
  MIC: 0.25 µg/mL (≈ 0.716 µM)
Trichophyton rubrum, read-out: Geometric Mean MIC
  MIC: 0.021 µg/mL (≈ 0.0601 µM)
Trichophyton rubrum, read-out: MIC[90]
  MIC: 0.063 µg/mL (≈ 0.18 µM)
Trichophyton tonsurans, read-out: Geometric Mean MIC
  MIC: 0.043 µg/mL (≈ 0.123 µM)
Trichophyton tonsurans, read-out: MIC[90]
  MIC: 0.063 µg/mL (≈ 0.18 µM)
Trichosporon spp, read-out: Geometric Mean MIC
  MIC: 0.125 µg/mL (≈ 0.358 µM)
Trichosporon spp, read-out: MIC[90]
  MIC: 0.125 µg/mL (≈ 0.358 µM)
